Reference: paper PMC5389473, “DNA polymerase β contains a functional nuclear localization signal at its N-terminus” (Nucleic Acids Research, 2016)
Peptide text beside a SMILES is read from it. * marks the point of attachment. FITC = O=C1OC2(c3ccc(O)cc3Oc3cc(O)ccc32)c2ccc(NC(=S)*)cc21

What was measured:
mImpα1ΔIBB [1] = target: T1, mImpα1ΔIBB (Mus musculus, UniProt P52293); test: Fluorescence polarization, direct binding of FITC-labeled pol β NLS peptide; design: species or system murine; details: abstract, peptide corresponding to pol β residues 2–13
T1 construct: His; made in house
Excerpt: The fluorescein-labeled pol β NLS peptide: S^3[…]^14-Lys(FITC), used for fluorescence polarization assays, was obtained from Genscript at a purity level of > 90%. Methyl methanesulfonate (MMS) was from Sigma-Aldrich. Following a strategy used previously ([61]), we studied a pol β complex with a double-hairpin that forms a one-nucleotide gapped DNA substrate with the following sequence: 5΄-^[…]-3΄ (underlined nucleotide is in the gap). The oligonucleotide was from Oligos Etc., Wilsonville, OR, USA. The non-hydrolyzable deoxynucleoside triphosphate 2΄-deoxyadenosine-5΄-[(α,β)-methyleno]triphosphate (dAPCPP) was obtained from Jena Bioscience.
His-tagged mImpα1 with the Importin β binding domain (IBB) deleted (mImpα1ΔIBB) and its major pocket variant (mImpα1ΔIBB[W184R/W231R]) were prepared as described previously ([56]). […] Protein concentrations were determined by the Edelhoch procedure ([63]).
(§1) Apparent peptide dissociation constants were determined based on fluorescence polarization measurements using the fluorescein-labeled pol β NLS peptide as previously described ([56]). The binding constants for the interaction of pol β lyase domain with the Importin α constructs were determined by displacement of the FITC-labeled NLS peptide using a competition assay as previously described ([56]).

hImpα5ΔIBB [2] = target: T2, hImpα5ΔIBB (Homo sapiens, UniProt P52294); test: Analytical gel filtration of lyase domain / hImpα5ΔIBB mixtures; format: binding; details: 2-fold excess lyase domain, Superdex 200 10/300 GL, 1 ml/min, 20 mM HEPES, 125 mM NaCl, 5 mM DTT, 1 mM EDTA, pH 7.4
T2 construct: human Importin α5, corresponding to residues 66–512, (hImpα5ΔIBB); His (C)
Experimental: (§2) For an initial assessment of binding, a sample of mImpα1ΔIBB was mixed with a 2.8-fold excess of pol β lyase domain and the sample was eluted on a HiLoad 26/60 Superdex 200 column (GE Healthcare) with a buffer containing 20 mM Tris-HCl, pH 7.8, 125 mM NaCl, 2 mM DTT, 1 mM ethylenediaminetetraacetic acid. For the analytical gel filtration experiments, hImpα5ΔIBB was mixed with 2-fold excess of wild-type or the NLS variant pol β(R4S,K5S) lyase domain and the samples were eluted on a Superdex 200 10/300 GL column (GE Healthcare) with a buffer containing 20 mM HEPES, 125 mM NaCl, 5mM DTT, 1mM ethylenediaminetetraacetic acid, pH 7.4.
Supplementary Figure S4. Interaction of the pol β lyase domain with Impα5. Analytical gel filtration experiments performed on mixtures of hImpa5DIBB and either wild-type or pol b(R4S,K5S) lyase domain.
For these experiments, hImpa5DIBB was mixed with 2-fold excess of wild-type or the NLS variant pol b(R4S,K5S) lyase domain and the samples were eluted at a flow rate of 1 ml/min on a Superdex 200 10/300 GL column (GE Healthcare) with a buffer containing 20 mM HEPES, 125 mM NaCl, 5mM DTT, […]
than Impa5DIBB alone; C) a mixture of Impa5DIBB with pol b(R4S,K5S) lyase domain elutes as two […]

mImpα1ΔIBB [3] = test: Gel filtration of lyase domain / mImpα1ΔIBB mixture; format: binding, murine; details: 2.8-fold excess lyase domain, HiLoad 26/60 Superdex 200, 20 mM Tris-HCl pH 7.8, 125 mM NaCl, 2 mM DTT, 1 mM EDTA
Experimental: as §2
Supplementary Figure S2. Interaction of pol β lyase domain with mImpα1DIBB. A sample of mImpα1DIBB was mixed with 2.8-fold excess of pol b lyase domain and the sample was eluted on a HiLoad 26/60 Superdex 200 column (GE Healthcare) with a buffer containing 20 mM Tris-HCL, pH 7.8, […]
125 mM NaCl, 2 mM DTT, 1 mM EDTA. […]
which contain both proteins while the excess pol b lyase domain elutes in fractions 41-43.
(1 picture or pasted object on this page, not shown here)

hImpα5ΔIBB [4] = target: T2, hImpα5ΔIBB; test: Ligand displacement (competition) of FITC-labeled NLS peptide by lyase domain; format: binding; details: relative to value with mImpα1ΔIBB
Experimental: His-tagged mImpα1 with the Importin β binding domain (IBB) deleted (mImpα1ΔIBB) and its major pocket variant (mImpα1ΔIBB[W184R/W231R]) were prepared as described previously ([56]). The minor binding pocket double mutant (mImpα1ΔIBB[W357R/W399R]) was created using the QuikChange kit (Agilent). C-terminal His-tagged human Importin α5, corresponding to residues 66–512, (hImpα5ΔIBB) was purchased from Genscript and cloned into the pET30 expression vector. All clones were sequence verified. mImpα1ΔIBB[W357R/W399R] and hImpα5ΔIBB were expressed and purified by the IMAC and gel filtration protocol previously described ([56]). Protein concentrations were determined by the Edelhoch procedure ([63]).
as §1
Figure 3. Binding of the pol β lyase domain to mImpα1ΔIBB and hImpα5ΔIBB. […] The initial fluorescence polarization value corresponds to the fraction of NLS peptide complexed with Impα, so that 100 would correspond to a fully complexed peptide. […]

mImpα1ΔIBB [5] = test: 1H-15N HSQC NMR binding study; design: species or system murine; details: 130 μM protein, equal concentration mImpα1ΔIBB; 50 mM Tris-d11 pH 7.6, 150 mM KCl; 25°C
Experimental: For the mImpα1ΔIBB binding experiments, the samples contained 0.13 mM U-[^2H,^15N]pol β and 0.13 mM mImpα1ΔIBB in a buffer consisting of 50 mM Tris-d11 (pH 7.6), 150 mM KCl, 1 mM CDTA, 1 mM dithiothreitol (DTT), 0.1 mM AEBSF, 0.04% NaN3 and 50 μM DSS as an internal chemical shift standard, with 10% D2O for ^1H-^15N HSQC experiments and 100% D2O for ^1H-^13C HSQC experiments. For studies of the effects of the R4S,K5S mutation on pol β structure and function, the [methyl-^13C]methionine-labeled pol β samples contained 0.1 mM pol β or the NLS-variant in the above 100% D2O buffer along with 0.11 mM of a 1-nucleotide gapped double-hairpin DNA substrate and 0.14 mM of the non-hydrolyzable nucleoside triphosphate substrate dAPCPP. Nuclear magnetic resonance (NMR) experiments were performed at 25°C on a Varian UNITY INOVA 600 or 800 MHz NMR spectrometer, using a 5 mm Varian ^1H{^13C,^15N} triple-resonance room-temperature or Cold Probe, equipped with actively shielded Z-gradients. The ^1H-^13C HSQC spectra were acquired using Varian's gChsqc sequence. The spectra were processed using NMRPipe version 2.1 ([64]) and analyzed using NMRView version 5.0.4 ([65]). All spectra were processed using squared cosine bell apodization functions in all dimensions and forward-backward linear prediction in the indirect dimension ([66]).
Figure 1. […]

T2 sequence (P52294 66-512, stated change not applied): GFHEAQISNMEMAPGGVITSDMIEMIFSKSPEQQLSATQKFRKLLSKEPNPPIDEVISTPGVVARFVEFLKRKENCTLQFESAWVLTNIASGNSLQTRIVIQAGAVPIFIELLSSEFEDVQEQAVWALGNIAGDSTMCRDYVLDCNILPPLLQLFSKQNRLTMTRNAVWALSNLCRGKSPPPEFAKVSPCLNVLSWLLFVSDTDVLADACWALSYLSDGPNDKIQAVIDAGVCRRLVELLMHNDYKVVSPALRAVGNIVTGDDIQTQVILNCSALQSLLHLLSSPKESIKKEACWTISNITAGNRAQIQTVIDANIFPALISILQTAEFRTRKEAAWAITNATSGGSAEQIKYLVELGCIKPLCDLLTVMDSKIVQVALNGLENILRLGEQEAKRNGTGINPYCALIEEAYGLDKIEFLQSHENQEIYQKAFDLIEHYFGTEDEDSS

Row | Compound | Kd (in words) (mImpα1ΔIBB [1]) | complex formation by analytical gel filtration (hImpα5ΔIBB [2]; listed as pol b lyase domain) | complex formation by analytical gel filtration (hImpα5ΔIBB [2]; listed as wild-type lyase domain) | complex formation by gel filtration (mImpα1ΔIBB [3]) | complex formation by gel filtration (mImpα1ΔIBB [3]; listed as pol b lyase domain) | increase in affinity, hImpα5ΔIBB vs mImpα1ΔIBB (hImpα5ΔIBB [4]) | effect of mImpα1ΔIBB on 1H-15N HSQC resonances (mImpα1ΔIBB [5])
1 | CC(C)C[C@H](NC(=O)[C@@H](NC(=O)[C@H](CCC(=O)O)NC(=O)[C@H](CCC(N)=O)NC(=O)[C@@H]1CCCN1C(=O)[C@H](C)NC(=O)[C@H](CCCCN)NC(=O)[C@H](CCCNC(=N)N)NC(=O)[C@H](CCCCN)NC(=O)[C@@H](N)CO)[C@@H](C)O)C(=O)N[C@@H](CC(N)=O)C(=O)NCC(=O)NCC(=O)N[C@@H](CCCCNC(=S)Nc1ccc2c(c1)C(=O)OC21c2ccc(O)cc2Oc2cc(O)ccc21)C(=O)O (H-SKRKAPQETLNGGK(FITC)-OH) | low micromolar Kd |  |  |  |  |  | 
2 | Pol β lyase domain: N-terminal lyase domain of pol β (residues 2–87) |  | a complex of Impa5DIBB with pol b lyase domain elutes earlier | does elute as a complex | indicated an interaction between the two proteins | the complex elutes in fractions 28-32 | 8 fold | broadened lyase domain amide resonances
